In ChEMBL document CHEMBL1201862, “PubChem BioAssay data set” (2004):
Active and inactive are the calls of the source.

Legend:
[1] = biological target: T1, Heat shock factor protein 1 (Mus musculus, UniProt P38532); assay: inhibition of MG132-induced HSE-luciferase signal, confirmation, cell-based, NIH3T3, luminescence, dose retest (AID 2382); assay type: functional;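 note: NIH3T3 fibroblasts with HSF1-driven luciferase reporter stressed by proteasome inhibitor MG132; luminescence from HSF1-driven luciferase expression after 8 hours of MG132 stress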
T1 sequence (P38532 whole entry): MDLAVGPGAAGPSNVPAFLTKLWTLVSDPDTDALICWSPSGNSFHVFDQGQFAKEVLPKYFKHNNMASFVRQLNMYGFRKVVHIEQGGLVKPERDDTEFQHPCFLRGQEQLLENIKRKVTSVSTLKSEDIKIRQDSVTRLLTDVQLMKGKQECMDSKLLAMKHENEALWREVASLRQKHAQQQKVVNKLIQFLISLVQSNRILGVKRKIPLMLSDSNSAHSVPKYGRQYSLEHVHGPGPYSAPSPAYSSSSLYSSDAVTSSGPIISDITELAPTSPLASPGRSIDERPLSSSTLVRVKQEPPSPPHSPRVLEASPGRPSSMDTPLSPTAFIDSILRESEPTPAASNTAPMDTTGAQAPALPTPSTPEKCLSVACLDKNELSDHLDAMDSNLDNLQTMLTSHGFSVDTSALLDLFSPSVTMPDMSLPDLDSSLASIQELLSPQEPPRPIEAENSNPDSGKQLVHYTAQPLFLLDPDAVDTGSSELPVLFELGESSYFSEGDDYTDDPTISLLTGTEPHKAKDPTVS

[2] = HepG2 cell cytotoxicity, dose response, cytotoxicity control, plate reader, cherry-pick, antagonist series (AID 743416); assay type: functional, cell-based
[3] = Luminescence Cell-Based Dose Confirmation HTS to Identify Inhibitors of Platelet Dense Granule Release. [Related pubchem assays: 1663 (Primary HTS), 1678 (Summary of Project)]; assay type: functional
[4] = biological target: Luciferin 4-monooxygenase (Photinus pyralis, UniProt P08659); assay: firefly luciferase enzyme inhibitors, dose response, biochemical, luminescence (AID 1891)
cells [5] = assay type: functional, cell-based
[6] = LGR2 antagonists, dose response, cell-based, HEK293, CRE-luciferase reporter, cherry pick, set 2 (AID 743343); assay type: functional;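 note: transfected cells were stimulated with diluted bursicon conditioned medium after compound addition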
[7] = MC4R antagonists, dose response, counter-screen for LGR2 antagonist project, cell-based, plate reader, cherry pick (AID 743444); assay type: functional;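 note: transfected HEK 293 cells stimulated with alpha-MSH peptide; potency of inhibitors of the alpha-MSH evoked signal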
[8] = luciferase reporter signal reduction – luminescence, H4-C neuroglioblastoma cells, dose response (AID 2458); assay type: functional, cell-based;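 note: H4 neuroglioblastoma cells stably carrying a luciferase reporter gene fusion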
[9] = HEK293 cell cytotoxicity, dose response, cytotoxicity control, plate reader, cherry-picked samples (AID 743446); assay type: functional, cell-based
[10] = A549 cell cytotoxicity, dose response, cytotoxicity control, plate reader, cherry-pick, antagonist series (AID 743412); assay type: functional, cell-based
[11] = inhibitors of SNCA 5'UTR-driven translation, confirmation, luminescence, H4 neuroglioblastoma cells, dose confirmation (AID 2454); assay type: functional, cell-based;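 note: H4 neuroglioblastoma cells carrying an alpha-synuclein 5'UTR luciferase reporter; potency for inhibition of the luciferase signal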
[12] = inhibitors of firefly luciferase expression or activity, dose response, H4 neuroglioma cells, luminescence (AID 1990); assay type: functional, cell-based
[13] = Luminescence Cell-Based Dose Response HTS to Identify Inhibitors of 5'UTR Stem-Loop Driven Prion Protein mRNA Translation in H4 Neuroglioblastoma Cells. [Related pubchem assays: 1827 (Project Summary), 1813 (Primary HTS)]; assay type: functional
[14] = Luminescence-based counterscreen assay for KLF5 inhibitors: dose response cell-based high throughput screening assay to identify cytotoxic compounds using the IEC-6 intestinal epithelial cell line. [Related pubchem assays: 1700 (Primary screen.), 1834 (Confirmation screen.), 1858 (Summary AID.), 1905 (Counterscreen.)]; assay type: functional
[15] = inhibitors of SNCA 5'UTR-driven reporter translation, confirmation, H4 neuroglioma cells, luminescence (AID 1988); assay type: functional, cell-based
Protein Wnt-3a = Protein Wnt-3a (Mus musculus, UniProt P27467); assay: Wnt3a-driven reporter signaling inhibition, dose response, selectivity assay for Gli-SUFU antagonist project, Wnt-LIGHT cells, luminescence (AID 651570); assay type: functional; conditions: read-out: IC50_Mean;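 note: Wnt-LIGHT reporter cells stimulated with conditioned medium from Wnt3a-producing cells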
[16] = inhibitors of intracellular T. cruzi replication, confirmation, NIH3T3 host cells, beta-gal luminescence (AID 2044); assay type: functional, cell-based;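 note: intracellular parasites grown in NIH/3T3 mouse fibroblasts as host cells; luminescent beta-galactosidase reporter signal from transgenic T. cruzi replicating inside host cells; inhibitors lower the luminescence signal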
[17] = cytotoxicity toward NIH3T3 fibroblasts, dose response, counter-screen, cell-based, ATP luminescence, mouse fibroblasts (AID 2010); assay type: functional;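 note: cells exposed to compound for about 90 hours before reading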
[18] = non-specific cell cytotoxicity, dose response, cytotoxicity control for PAX8 inhibitor project, plate reader, dry powder samples (AID 743021); assay type: functional, cell-based
[19] = P. falciparum Dd2 growth inhibitors, dose response, SYBR Green, cherry-picked samples (AID 1159567); assay type: functional, cell-based
[20] = HepG2 cell cytotoxicity, dose response, cytotoxicity control, cherry-picked samples (AID 1159577); assay type: functional, cell-based
[21] = IGROV1 ovarian cancer cell cytotoxicity, dose response, PAX8 inhibitor project, plate reader, dry powder samples (AID 743043); assay type: functional, cell-based; conditions: IGROV-1
[22] = NIH:OVCAR-3 ovarian cancer cell cytotoxicity, dose response, PAX8 inhibitor project, plate reader, dry powder samples (AID 743044); assay type: functional, cell-based
Paired box protein Pax-8 = Paired box protein Pax-8 (Homo sapiens, UniProt Q06710); assay: inhibitors of PAX8-driven TPO luciferase reporter, dose response, RMG-I cells, cherry-pick (AID 687027); assay type: functional, cell-based;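 note: luciferase reporter driven by Pax8 target thyroperoxidase promoter measured by SteadyGlo luminescence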
Major prion protein = Major prion protein (Homo sapiens, UniProt P04156); assay type: functional, cell-based
cells [23] = assay: cells
[24] = StAR promoter reporter inhibition counter-screen, dose response, counter-screen for LRH-1 inverse agonist project, cell-based, luminescence, luciferase reporter (AID 651969); assay type: functional
[25] = biological target: Nuclear receptor subfamily 5 group A member 2 (Homo sapiens, UniProt O00482); assay type: functional, cell-based;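 note: HEK293T cells transfected with LRH-1 and a StAR promoter luciferase reporter; potency for inhibitors that lower LRH-1 driven reporter light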
Steroidogenic factor 1 = Steroidogenic factor 1 (Homo sapiens, UniProt Q13285); assay: Counterscreen for inverse agonists of the liver receptor homolog-1 (LRH-1; NR5A2): Luminescence-based cell-based high throughput dose response assay to identify inverse agonists of the Steroidogenic Factor 1 Nuclear Receptor (SF1; NR5A1).; assay type: functional
HeLa = assay: HeLa cell cytotoxicity, dose response, cytotoxicity control, ATP luminescence, cherry-pick samples (AID 687004); assay type: functional, cell-based
[26] = ADAM10 protease inhibitors, dose response, selectivity assay for ADAM17 exosite inhibitor project, biochemical, FRET peptide substrate, recombinant human ADAM10 (AID 743259);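 note: ADAM10 enzyme cleaving a FRET peptide substrate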
[27] = biological target: Disintegrin and metalloproteinase domain-containing protein 17 (Homo sapiens, UniProt P78536); assay: exosite inhibitors of ADAM17, dose response, biochemical (AID 743260)
Cryptococcus neoformans = assay: PubChem AID 686997; assay type: functional, organism-based
HEK293 [28] = assay: NOD1 signaling inhibitors, primary screen, cell-based, luminescence, uHTS (AID 1578); assay type: functional; conditions: Homo sapiens
HEK293 [29] = assay: cells; assay type: functional, cell-based; conditions: Homo sapiens
HEK293 [30] = assay: cells; assay type: functional, cell-based; conditions: Homo sapiens; remark: listed apart in the source
[31] = biological target: Nucleotide-binding oligomerization domain-containing protein 2 (Homo sapiens, UniProt Q9HC29); assay: NOD2 signaling inhibitors, cell-based, luminescence, uHTS, HEK293 (AID 1566); assay type: functional
HEK293 [32] = assay: cells; assay type: functional, cell-based; conditions: Homo sapiens; remark: listed apart in the source
HEK293 [33] = assay: NOD2 signaling inhibitors in MDP-stimulated cells, cell-based, uHTS, luminescence (AID 2001); assay type: functional; conditions: Homo sapiens
cells [34] = conditions: A549
cells [35] = conditions: HEK293

In the case of `CCCS(=O)(=O)c1cnc(C2COc3ccccc3O2)nc1N` (centres undefined), the EC50 [1] is reported as < 0.16 µM (active), the AC50 [2] is reported as 40.1 µM (active) and the EC50 [3] is reported as 3.05 µM (active). For the same compound, the EC50 [4] was 14.4 µM (active), the EC50 (cells [5]) was > 12 µM (inconclusive) and the AC50 [6] was 1.45 µM (active). For the same compound, the AC50 [7] was 1.2 µM (active), the EC50 [8] was 0.862 µM (active) and the AC50 [9] was 26.6 µM (active). For the same compound, the AC50 [10] was 34.2 µM (active), the EC50 [11] was 1.06 µM (active) and the EC50 [12] was 0.197 µM (active). For the same compound, the EC50 [13] was 0.132 µM (active), the IC50 [14] was > 39.8 µM (not active) and the EC50 [15] was < 0.1 µM (active).

For `C=C(C)CSc1nc2sc3c(c2c(=O)n1C1CCCCC1)CCN(C)C3`, the IC50 (Protein Wnt-3a) was 13.5 µM (active), the EC50 [16] was 0.403 µM (active) and the EC50 [17] was > 60 µM (not active).

For `COc1ccccc1NC(=O)N1CCCCN2[C@H](CO)[C@H](c3ccc(-c4cccc(C)c4)cc3)[C@H]2C1`, the AC50 [18] was 2.56 µM (active), the AC50 [19] was 1.44 µM (active) and the AC50 [20] was 9.66 µM (active). For the same compound, the AC50 [21] was 64.1 µM (active), the AC50 [22] was 22.8 µM (active) and the AC50 (Paired box protein Pax-8) was 14.6 µM (active).

In the case of `Brc1ccc2nc(-c3ccco3)c(Cc3ccccc3)n2c1`, the IC50 (Major prion protein) is reported as 6.67 µM (active) and the IC50 (cells [23]) is reported as 113 µM (inactive).

With `Cc1cc(OCC(=O)Nc2nccs2)c2c(C)cc(=O)oc2c1` the IC50 [24] was 35.9 µM (inactive), the IC50 [25] was 0.168 µM (active) and the IC50 (Steroidogenic factor 1) was 0.112 µM (active).

In the case of `COc1cc2c(cc1OC)CN(C(=O)CN1C(=O)NC3(CCC(C)CC3)C1=O)CC2` (centres undefined), the IC50 [24] is reported as 35.9 µM (inactive), the IC50 [25] is reported as 13.4 µM (inactive) and the IC50 (Steroidogenic factor 1) is reported as 11.3 µM (inactive).

With `COC(=O)C1=C(C)N(Cc2ccc(Br)cc2)C(=S)NC1c1ccc(F)cc1` (centres undefined) the AC50 (HeLa) was > 52 µM (inactive), the AC50 (HeLa; Homo sapiens) was > 47 µM (inactive) and the IC50 [26] was 52.8 µM (inactive). The IC50 [27] was > 69.6 µM (inactive), the AC50 (Cryptococcus neoformans) was 23.2 µM (active) and the AC50 (Cryptococcus neoformans; Cryptococcus neoformans) was 40.3 µM (active).

With `Cc1nc2cc(N3CCN(C)CC3)c(NC(=O)Cc3ccccc3)cc2c(=O)n1Cc1ccccc1` the EC50 (HEK293 [28]) was > 20 µM (inactive), the IC50 (HEK293 [29]) was > 20 µM (inactive) and the IC50 (HEK293 [30]) was 8.5 µM (active). The EC50 [31] was 9.39 µM (active), the IC50 (Protein Wnt-3a) was 37.5 µM (inactive) and the IC50 (HEK293 [32]) was > 20 µM (inactive). For the same compound, the IC50 (HEK293 [33]) was > 20 µM (inactive).

With `Cc1ccc2nc3c(cc(C(N)=S)c(=N)n3CCCOC(C)C)c(=O)n2c1` the AC50 (cells [34]) was 33.9 µM (active), the EC50 [16] was 4.43 µM (active) and the EC50 [17] was 9.45 µM (active). For the same compound, the AC50 (cells [35]) was > 52 µM (inactive).
